According to PubChem BioAssay (NCI):
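Dose response: 5 concentrations. Exposure: 48 h. Format: 96-well plates. Endpoint: linear interpolation; highest concentration if not reached. Here, GI50 denotes the concentration required for 50% inhibition of growth. TGI: total growth inhibition.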

What was measured:
Assay in all cases: NCI tumour cell line growth inhibition, 48 h
[1] = test system: MDA-MB-231 breast
[2] = test system: SK-MEL-28 melanoma
[3] = test system: NCI/ADR-RES ovarian
[4] = test system: ACHN renal
[5] = test system: DU-145 prostate
[6] = test system: UACC-62 melanoma
[7] = test system: UACC-257 melanoma
[8] = test system: SF-295 CNS
[9] = test system: OVCAR-5 ovarian
[10] = test system: T-47D breast
[11] = test system: HCT-15 colon
[12] = test system: EKVX NSCLC
[13] = test system: OVCAR-4 ovarian
[14] = test system: SK-OV-3 ovarian
[15] = test system: K-562 leukemia
[16] = test system: 786-0 renal
[17] = test system: MOLT-4 leukemia
[18] = test system: LOX IMVI melanoma
[19] = test system: SN12C renal
[20] = test system: CAKI-1 renal
[21] = test system: SK-MEL-5 melanoma
[22] = test system: SK-MEL-2 melanoma
[23] = test system: NCI-H226 lung
[24] = test system: UO-31 renal
[25] = test system: SF-539 CNS
[26] = test system: A549 NSCLC
[27] = test system: HOP-92 NSCLC
[28] = test system: RPMI-8226 leukemia
[29] = test system: SNB-75 CNS
[30] = test system: HCT-116 colon
[31] = test system: NCI-H460 lung
[32] = test system: PC-3 prostate
[33] = test system: SNB-19 CNS
[34] = test system: OVCAR-8 ovarian
[35] = test system: NCI-H522 lung
[36] = test system: SF-268 CNS
[37] = test system: KM12 colon
[38] = test system: U251 CNS
[39] = test system: TK-10 renal
[40] = test system: HOP-62 NSCLC
[41] = test system: OVCAR-3 ovarian
[42] = test system: A498 renal
[43] = test system: MCF7 breast
[44] = test system: M14 melanoma
[45] = test system: HS 578T breast
[46] = test system: HT29 colon
[47] = test system: NCI-H23 lung
[48] = test system: RXF 393 renal
[49] = test system: IGROV1 ovarian
[50] = test system: HL-60(TB) leukemia
[51] = test system: SW-620 colon
[52] = test system: MDA-MB-435
[53] = test system: SR leukemia
[54] = test system: BT-549 breast
[55] = test system: COLO 205 colon

Work on `CCCCCCCCCCCCCCCCCCOc1ccccc1CC(=O)OCC[N+](C)(C)C` yielded a GI50 [1] of 1.57 µM, a TGI [1] of 3.21 µM and a GI50 [2] of 1.63 µM. The TGI [2] was 3.57 µM, the GI50 [3] was 9.84 µM and the TGI [3] was 35.7 µM. The GI50 [4] was 1.75 µM, the TGI [4] was 3.72 µM and the GI50 [5] was 1.71 µM. For the same molecule, the TGI [5] was 3.09 µM, the GI50 [6] was 1.57 µM and the TGI [6] was 3.51 µM. The GI50 [7] was 2.34 µM, the TGI [7] was 6.34 µM and the GI50 [8] was 2.03 µM. It also gave a TGI [8] of 4.52 µM, a GI50 [9] of 1.45 µM and a TGI [9] of 2.89 µM. For the same molecule, the GI50 [10] was 2.06 µM, the TGI [10] was 4.89 µM and the GI50 [11] was 2.94 µM. For the same molecule, the TGI [11] was 11.5 µM, the GI50 [12] was 2.17 µM and the TGI [12] was 5.4 µM.
`Nc1cc(N)c2nc(-c3ccccc3)c(Nc3ccc(F)cc3)nc2c1` gave a GI50 [1] of 11 µM, a TGI [1] of 30.5 µM and a GI50 [13] of 13.4 µM. For the same molecule, the TGI [13] was 48.8 µM, the GI50 [14] was 40.7 µM and the TGI [14] was over 100 µM. For the same molecule, the GI50 [2] was 20.4 µM, the TGI [2] was 39.3 µM and the GI50 [15] was 4.97 µM. It also gave a TGI [15] of over 100 µM, a GI50 [3] of 23.8 µM and a TGI [3] of 57.5 µM. The GI50 [4] was 10.3 µM, the TGI [4] was 22.5 µM and the GI50 [16] was 17.4 µM. It also gave a TGI [16] of 54.3 µM, a GI50 [17] of over 100 µM and a TGI [17] of over 100 µM. For the same molecule, the GI50 [5] was 12 µM, the TGI [5] was 28.3 µM and the GI50 [6] was 16.1 µM. It also gave a TGI [6] of 31.7 µM, a GI50 [18] of 4.81 µM and a TGI [18] of 18 µM. For the same molecule, the GI50 [19] was 15.6 µM, the TGI [19] was 33.9 µM and the GI50 [7] was 15.3 µM. The TGI [7] was 29 µM, the GI50 [8] was 14.4 µM and the TGI [8] was 32.4 µM. For the same molecule, the GI50 [20] was 19.2 µM, the TGI [20] was 40.4 µM and the GI50 [21] was 14.4 µM. The TGI [21] was 33 µM, the GI50 [9] was 38.4 µM and the TGI [9] was over 100 µM. For the same molecule, the GI50 [22] was 29.8 µM, the TGI [22] was over 100 µM and the GI50 [23] was 17.9 µM. It also gave a TGI [23] of 47.5 µM, a GI50 [24] of 16.9 µM and a TGI [24] of 61.4 µM. The GI50 [25] was 11 µM, the TGI [25] was 24.6 µM and the GI50 [26] was 17.2 µM. The TGI [26] was 44.6 µM, the GI50 [27] was 13.1 µM and the TGI [27] was 43.6 µM. It also gave a GI50 [28] of 4.64 µM, a TGI [28] of 34.6 µM and a GI50 [29] of 20.8 µM. For the same molecule, the TGI [29] was 41.9 µM, the GI50 [30] was 20.1 µM and the TGI [30] was over 100 µM. It also gave a GI50 [31] of 26.4 µM, a TGI [31] of over 100 µM and a GI50 [32] of 11.7 µM. It also gave a TGI [32] of over 100 µM, a GI50 [33] of 22.1 µM and a TGI [33] of 40 µM. The GI50 [34] was 12.4 µM, the TGI [34] was 30.3 µM and the GI50 [35] was over 100 µM. It also gave a TGI [35] of over 100 µM, a GI50 [36] of 13.2 µM and a TGI [36] of 41 µM. For the same molecule, the GI50 [37] was 12 µM, the TGI [37] was 29.5 µM and the GI50 [38] was 5.65 µM. It also gave a TGI [38] of 20 µM, a GI50 [39] of 17.3 µM and a TGI [39] of 35.6 µM. It also gave a GI50 [40] of 37.8 µM, a TGI [40] of over 100 µM and a GI50 [41] of 4.66 µM. For the same molecule, the TGI [41] was 17.8 µM, the GI50 [42] was 17.4 µM and the TGI [42] was 33.8 µM. The GI50 [43] was 12.5 µM, the TGI [43] was over 100 µM and the GI50 [44] was 16.3 µM. For the same molecule, the TGI [44] was 43.3 µM, the GI50 [11] was 12.7 µM and the TGI [11] was 38.1 µM. For the same molecule, the GI50 [45] was 19.1 µM, the TGI [45] was 58.8 µM and the GI50 [46] was 18.6 µM. It also gave a TGI [46] of 35.3 µM, a GI50 [47] of 22.5 µM and a TGI [47] of 49.1 µM. For the same molecule, the GI50 [12] was 12 µM, the TGI [12] was 30 µM and the GI50 [48] was 8.71 µM. The TGI [48] was 28.8 µM, the GI50 [49] was 16.6 µM and the TGI [49] was over 100 µM. It also gave a GI50 [50] of 11.3 µM, a TGI [50] of over 100 µM and a GI50 [51] of 13.6 µM. For the same molecule, the TGI [51] was 39.2 µM, the GI50 [52] was 7.34 µM and the TGI [52] was 20.8 µM. It also gave a GI50 [53] of 5.36 µM, a TGI [53] of over 100 µM and a GI50 [54] of 11.9 µM. It also gave a TGI [54] of 27.2 µM, a GI50 [55] of 20.3 µM and a TGI [55] of 55.9 µM.
